Where two headings read alike, the source gives them in different places.
Assays:
[1] = system: Nocardia corallina B-276 (FERM P-4094; FERM BP-5124; ATCC 31338); assay: Reaction rate of degradation of chlorine-substituted substrates (Example 4, Table 1); type: cell-based
Procedure: Experiments were also carried on tetrachloroethylene (perchloroethylene) (PCE) and 1,2-dichloroethane (1,2-DCA).
The initial concentration of each substrate in the liquid phase was selected so as not to exceed 20 mg/l, i.e., the range in which no inhibition on the enzyme reaction is expected. Specifically, the substrate was added in an amount of […] which corresponded to 11.2 mg/l of trichloroethylene in terms of initial concentration in the liquid phase. […] The cell concentration during the reaction was set at 4.0 g/l or 8.0 g/l, and the concentration of the substrate remaining in the gas phase was measured with time in the same manner as in Example 3 and converted to the concentration in the liquid phase, from which the reaction rate was calculated.

[2] = system: Nocardia corallina B-276 (FERM P-4094; FERM BP-5124; ATCC 31338); assay: Degradation of trichloroethylene by Nocardia corallina B-276 cell suspension (Example 1); type: cell-based; conditions: 1 mM trichloroethylene, glucose added, 30° C., 12 hours
Procedure: In a 500 ml Sakaguchi's flask was put 100 ml of NBG medium (a liquid medium containing 10 g of Lab-Lemco powder (produced by Oxoid Co., Ltd.), 10 g of bacteriological peptone, 10 g of glucose, 5 g of sodium chloride, and water to make 1 l, adjusted to pH 7.5 with a 1N aqueous sodium hydroxide solution, steam sterilized by autoclaving at 120° C. for 15 minutes) and inoculated with three loopfuls of Nocardia corallina B-276 (FERM P-4094; FERM BP-5124; ATCC 31338) using a platinum loop, followed by shake culture at 30° C. for 96 hours for previous proliferation.
The resulting culture was centrifuged to collect the microbial cells, which were suspended in 50 ml of a minimal medium (K2 HPO4 1.74 g, MgSO4. 7H2 O 1.5 g, FeSO4. H2 O 0.05 g, deionized water 1 l; adjusted to pH 8.0) to prepare a cell suspension. […]
For comparison, 50 ml of a cell-free medium (K2 HPO4 1.74 g, MgSO4.7H2 O 1.5 g, FeSO4. H2 O 0.05 g, deionized water 1 l; adjusted to pH 8.0) was put to a flask of the same volume as used above, and 2.5 ml of a 10% glucose solution and trichloroethylene (final concentration: 1 mM) were added thereto. […] The signal intensity (I2) was 95% or more of the initial signal intensity (I0) measured on the medium immediately after addition of trichloroethylene.

[3] = system: E. coli JM109 (pDBB-1) (FERM BP-4250), transformant having an alkene monooxygenase gene of Nocardia corallina B-276 origin; assay: Degradation of trichloroethylene by transformant E. coli JM109 (pDBB-1) cell suspension (Example 2); type: cell-based, Escherichia coli; conditions: 1 mM trichloroethylene, glucose added, 30° C., 12 hours
Procedure: LB medium (1.5 ml) (a liquid medium containing 10 g of Bacto-trypton, 5 g of Bacto-yeast extract, 10 g of sodium chloride, and deionized water to make 1 l, adjusted to pH 7.2 with a 1N aqueous […] solution, steam sterilized by autoclaving at 120° C. for 15 minutes) containing 50 μg/ml of ampicillin was inoculated with one loopful of E. coli JM109 (pDBB-1) (FERM BP-4250) using a platinum loop, which is a transformant having an alkene monooxygenase gene of Nocardia corallina B-276 origin, and incubated at 37° C. overnight (about 14 hours) for previous proliferation of the microorganism. Then, 100 ml of LB medium containing 50 μg/ml of ampicillin was inoculated with the resulting culture and incubated at 37° C. for 2 hours. To the culture was added isopropyl-β-D-thiogalactopyranoside (IPTG) at a final concentration of 1 mM, followed by further shake culture at 37° C. for 5 hours. A 10 ml aliquot of the resulting culture was centrifuged to collect the microbial cells, which were suspended in 2 ml of a minimal medium (K2 HPO4 1.74 g, MgSO4.7H2 O 1.5 g, FeSO4.H2 O 0.05 g, deionized water 1 l; adjusted to pH 8.0) to prepare a cell suspension. […]

[4] = system: Nocardia corallina B-276 (FERM P-4094; FERM BP-5124; ATCC 31338); assay: Influence of trichloroethylene concentration on reaction rate of biological oxidation (Example 3); type: cell-based; conditions: 35° C.
Text: In the biological oxidation of trichloroethylene with Nocardia corallina B-276 (FERM […]; FERM BP-5124; ATCC 31338), the influence of the trichloroethylene concentration on the reaction rate was examined as follows.
Nocardia corallina B-276 (FERM P-4094; FERM BP-5124; ATCC 31338) was previously proliferated in the same manner as described in Example 1. The microbial cells collected were suspended in a medium (K2 HPO4 1.74 g, MgSO4 .7H2 O 1.5 g, FeSO4.H2 O 0.05 g, deionized water 1 l; adjusted to pH 8.0) to prepare a cell suspension.
In a 17 ml-volume flask was put 2 ml of the cell suspension, 100 μl of a 10% glucose solution added as an energy source, a varied amount of trichloroethylene added thereto, and the flask sealed and incubated at 35° C. for 5 hours while shaking to allow the cells to act on the trichloroethylene. The cell concentration was 2.44 g/l. A 1 ml aliquot of the gas was taken out every 1 hour from the gas phase of the sealed flask and analyzed by gas chromatography (column: Porapak Q) to measure the gaseous trichloroethylene concentration. The trichloroethylene concentration remaining in the liquid phase was calculated from the gaseous phase trichloroethylene concentration. This calculation was made on the assumption that the partitioning of trichloroethylene between the gas and liquid phases in the vial are obeyed by the partition law.
FIG. 3 is a graph of rate of reduction of liquid phase trichloroethylene concentration plotted against initial trichloroethylene concentration.

[5] = Cell Concentration 4.0 g/l, initial substrate concentration not exceeding 20 mg/l

SMILES | degradability by Nocardia corallina B-276 ([1]; result in words) | Reaction Rate [1, 5] [mg/L/h] | Reaction Rate ([1]; cell concentration 4.0 g/l) [mg/l hr] | degradability by Nocardia corallina B-276 [1] | other results
C=C(Cl)Cl [1,1-Dichloroethylene, 1,1-dichloroethylene] | can be degraded | – | – | – | Reaction Rate ([1]; Cell Concentration 8.0 g/l, initial substrate concentration not exceeding 20 mg/l): 14.8 mg/L/h; reaction rate, corresponding value (for the cell concentration of the other substrates) ([1]; converted from the 8.0 g/l measurement): 7.4 mg/l hr
ClCCCl [1,2-Dichloroethane, 1,2-dichloroethane] | cannot be degraded | 0 | – | – | –
ClC(Cl)=C(Cl)Cl [Tetrachloroethylene, tetrachloroethylene] | cannot be degraded | 0 | – | – | –
ClC=C(Cl)Cl [Trichloroethylene, trichloroethylene] | – | 5.5 | 5.5 | – | trichloroethylene degraded [2]: about 98%; trichloroethylene concentration remaining in the medium (signal intensity I1 relative to I2) ([2]; sealed flask, gas chromatography, relative to cell-free medium): about 2%; trichloroethylene degraded [3]: about 17%; trichloroethylene concentration remaining in the medium (signal intensity I4 relative to I3) ([3]; sealed flask, gas chromatography): about 83%; Michaelis constant Km of the trichloroethylene substrate ([4]; cell concentration 2.44 g/l, calculated based on the results of FIG. 3): 90.4 mg/L; Km ([4]; cell concentration 2.44 g/l, calculated based on the results of FIG. 3, read-out: Michaelis constant Km of the trichloroethylene substrate): 678 µM; inhibition of the reaction by substrate ([4]; at least up to 90 mg/l of the initial trichloroethylene concentration in the liquid phase): no obvious inhibition
Cl/C=C\Cl [cis-1,2-Dichloroethylene, cis-1,2-dichloroethylene] | – | 72.2 | – | can be degraded | –
Cl/C=C/Cl [trans-1,2-dichloroethylene] | – | 6.5 | 6.5 | can be degraded | –

— patent US5612204A, “Biological degradative treatment of chlorine substituted ethylene” (priority 1994, dated 1997)
